Biological target: MALT1 (Homo sapiens (Human), UniProt Q9UDY8)
Assay: MALT1 enzymatic activity inhibition (fluorescence, Ac-LRSR-AMC substrate)
Type: biochemical
Details: recombinant MALT1 1.5 ng/μl, Ac-LRSR-AMC 1 μM
Description: Compound activity was determined using recombinant MALT1 protein (Creative Biomart, Cat #MALT1-28H) and Ac-LRSR-AMC Substrate in an in vitro enzymatic reaction. The enzymatic assay used to determine activity was a Fluorescence assay using a Microplate Reader ClarioStar Plus. The enzymatic reaction was carried out in 1× Assay Buffer (50 mM HEPES pH 7.2-7.4, 100 mM NaCl, 900 mM Sodium citrate, 10 mM DTT). The compounds were dispensed on a 384-well Diamond Well Plate (Axygen, Cat #P-384-120SQ-C—S) using the Biomek FX liquid handling system at 100× solutions of compounds in DMSO. 2.5×MALT1 mix (final concentration 1.5 ng/μl of MALT1) was prepared in 1× Assay Buffer and 8 μl of mixture per well were added into 384w white Reaction Plates with NBS (Corning, Cat #4513). 8 μl of 1× Assay Buffer were used for negative control. Plates were centrifuged for 1 min at 200 g. Next, the compounds were added to Reaction plates using Biomek station via following steps: 1 μl of 100× compounds (in DMSO) was mixed thoroughly with 19 μl of 1× Assay Buffer, then 4 μl of this mixture were added to Reaction plates with 8 μl of MALT1 mix. Plates were centrifuged for 1 min at 200 g and incubated for 10 minutes at rt. Next, 2.5× Ac-LRSR-AMC mix (final concentration 1 μM of Ac-LRSR-AMC) was prepared in 1× Assay Buffer and 8 μl of mixture per well were added to Reaction Plates using Biomek station. Plates were centrifuged for 1 min at 200 g, then the fluorescence was measured immediately using Microplate Reader. Plates were incubated for 30 minutes at 37° C., then for 30 minutes at rt. The fluorescence was measured after the whole incubation using Microplate Reader. The reaction signal was calculated as the subtraction of the first data set values from the second. The % inhibition was then used to calculate the IC50 values. The results of this assay are shown in the Table A. The values of EC50 shown as a letters A-E, where: A≤0.2 μM; 0.2 μM<B≤0.5 μM; 0.5 μM<C≤1 μM; 1<D≤5 μM; E >5.

Sequence of MALT1 (Q9UDY8 whole entry): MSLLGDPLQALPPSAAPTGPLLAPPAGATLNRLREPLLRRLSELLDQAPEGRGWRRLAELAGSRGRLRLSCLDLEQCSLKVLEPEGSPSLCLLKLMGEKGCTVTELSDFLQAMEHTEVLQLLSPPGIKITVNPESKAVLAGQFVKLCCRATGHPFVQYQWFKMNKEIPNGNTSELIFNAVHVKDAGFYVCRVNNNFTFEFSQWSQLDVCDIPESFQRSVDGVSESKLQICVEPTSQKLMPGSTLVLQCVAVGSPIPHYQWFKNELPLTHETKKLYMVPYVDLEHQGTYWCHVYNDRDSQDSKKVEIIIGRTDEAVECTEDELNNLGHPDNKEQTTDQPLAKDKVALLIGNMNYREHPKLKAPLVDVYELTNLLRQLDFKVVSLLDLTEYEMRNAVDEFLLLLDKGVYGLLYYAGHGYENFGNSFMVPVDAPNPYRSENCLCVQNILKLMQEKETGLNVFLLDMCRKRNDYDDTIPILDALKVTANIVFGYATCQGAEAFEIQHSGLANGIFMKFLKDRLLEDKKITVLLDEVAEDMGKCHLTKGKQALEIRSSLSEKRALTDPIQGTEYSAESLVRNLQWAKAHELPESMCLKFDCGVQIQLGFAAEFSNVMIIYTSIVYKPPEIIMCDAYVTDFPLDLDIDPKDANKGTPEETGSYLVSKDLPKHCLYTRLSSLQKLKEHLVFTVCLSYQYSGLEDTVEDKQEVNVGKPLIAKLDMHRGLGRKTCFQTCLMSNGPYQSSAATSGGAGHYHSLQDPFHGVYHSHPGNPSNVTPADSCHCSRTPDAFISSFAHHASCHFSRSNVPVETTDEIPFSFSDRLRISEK

Row | SMILES | EC50 [µM]
1 | Cc1cc(NC(=O)Nc2cnc3ccnn3c2C2CCCO2)cnc1-c1noc(CCCC(=O)N2CCN(c3ccc4c(c3)CN(C3CCC(=O)NC3=O)C4=O)CC2)n1 (centres unmarked) [Compound 58, 1-[6-[5-[4-[4-[2-(2,6-dioxo-3-piperidyl)-1-oxo-isoindolin-5-yl]piperazin-1-yl]-4-oxo-butyl]-1,2,4-oxadiazol-3-yl]-5-methyl-3-pyridyl]-3-(7-tetrahydrofuran-2-ylpyrazolo[1,5-a]pyrimidin-6-yl)urea] | ≤ 0.2
2 | Cc1cc(NC(=O)Nc2cnc3ccnn3c2C2CCCC2)cnc1-c1noc(CCCCCN2CCN(c3ccc4c(c3)CN(C3CCC(=O)N(C)C3=O)C4=O)CC2)n1 (centres unmarked) [Compound 64, 1-(7-cyclopentylpyrazolo[1,5-a]pyrimidin-6-yl)-3-[5-methyl-6-[5-[5-[4-[2-(1-methyl-2,6-dioxo-3-piperidyl)-1-oxo-isoindolin-5-yl]piperazin-1-yl]pentyl]-1,2,4-oxadiazol-3-yl]-3-pyridyl]urea] | ≤ 0.2
3 | Cc1cc(NC(=O)Nc2cnc3ccnn3c2C2CCCC2)cnc1-c1noc(CCCCN2CCN(c3ccc4c(c3)CN(C3CCC(=O)NC3=O)C4=O)CC2)n1 (centres unmarked) [Compound 21, 1-(7-cyclopentylpyrazolo[1,5-a]pyrimidin-6-yl)-3-[6-[5-[4-[4-[2-(2,6-dioxo-3-piperidyl)-1-oxo-isoindolin-5-yl]piperazin-1-yl]butyl]-1,2,4-oxadiazol-3-yl]-5-methyl-3-pyridyl]urea] | ≤ 0.2
4 | Cc1cc(NC(=O)Nc2cnc3ccnn3c2C2CCCO2)cnc1N1CCN(C(=O)CCOCCOCCN2CCN(c3ccc4c(c3)CN(C3CCC(=O)NC3=O)C4=O)CC2)CC1 (centres unmarked) [Compound 31, 1-[6-[4-[3-[2-[2-[4-[2-(2,6-dioxo-3-piperidyl)-1-oxo-isoindolin-5-yl]piperazin-1-yl]ethoxy]ethoxy]propanoyl]piperazin-1-yl]-5-methyl-3-pyridyl]-3-(7-tetrahydrofuran-2-ylpyrazolo[1,5-a]pyrimidin-6-yl)urea] | > 5
5 | Cc1cc2ncc(NC(=O)Nc3cnc(-c4noc(CCCCCCN5CCN(c6ccc7c(c6)CN(C6CCC(=O)NC6=O)C7=O)CC5)n4)c(C)c3)c(C3CCCO3)n2n1 (centres unmarked) [Compound 73, 1-[6-[5-[6-[4-[2-(2,6-dioxo-3-piperidyl)-1-oxo-isoindolin-5-yl]piperazin-1-yl]hexyl]-1,2,4-oxadiazol-3-yl]-5-methyl-3-pyridyl]-3-(2-methyl-7-tetrahydrofuran-2-yl-pyrazolo[1,5-a]pyrimidin-6-yl)urea] | ≤ 0.2
6 | Cc1cc2ncc(NC(=O)Nc3cnc(-c4noc(CCCCCCN5CCN(c6ccc7c(c6)CN(C6CCC(=O)NC6=O)C7=O)CC5)n4)c(C)c3)c(C3CCCC3)n2n1 (centres unmarked) [Compound 83, 1-(7-cyclopentyl-2-methyl-pyrazolo[1,5-a]pyrimidin-6-yl)-3-[6-[5-[6-[4-[2-(2,6-dioxo-3-piperidyl)-1-oxo-isoindolin-5-yl]piperazin-1-yl]hexyl]-1,2,4-oxadiazol-3-yl]-5-methyl-3-pyridyl]urea] | ≤ 0.2
7 | Cc1cc(NC(=O)Nc2cnc3c(Cl)cnn3c2C2CCCC2)cnc1-c1noc(CCCN2CCN(c3ccc4c(c3)CN(C3CCC(=O)NC3=O)C4=O)CC2)n1 (centres unmarked) [Compound 19, 1-(3-chloro-7-cyclopentyl-pyrazolo[1,5-a]pyrimidin-6-yl)-3-[6-[5-[3-[4-[2-(2,6-dioxo-3-piperidyl)-1-oxo-isoindolin-5-yl]piperazin-1-yl]propyl]-1,2,4-oxadiazol-3-yl]-5-methyl-3-pyridyl]urea] | 1 to 5
8 | O=C(CCOCCN1CCN(c2ccc3c(c2)CN(C2CCC(=O)NC2=O)C3=O)CC1)NCCNC(=O)[C@@H]1C[C@@H](O)CN1C(=O)Nc1cnc2ccnn2c1C1CCCC1 (stereo partly drawn) [Compound 46, (2S,4R)-N1-(7-cyclopentylpyrazolo[1,5-a]pyrimidin-6-yl)-N2-[2-[3-[2-[4-[2-(2,6-dioxo-3-piperidyl)-1-oxo-isoindolin-5-yl]piperazin-1-yl]ethoxy]propanoylamino]ethyl]-4-hydroxy-pyrrolidine-1,2-dicarboxamide] | > 5
9 | Cc1cc2ncc(NC(=O)Nc3cnc(-c4noc(CCCCC(=O)N5CCN(c6ccc7c(c6)CN(C6CCC(=O)NC6=O)C7=O)CC5)n4)c(C)c3)c(C3CCCC3)n2n1 (centres unmarked) [Compound 59, 1-(7-cyclopentyl-2-methyl-pyrazolo[1,5-a]pyrimidin-6-yl)-3-[6-[5-[5-[4-[2-(2,6-dioxo-3-piperidyl)-1-oxo-isoindolin-5-yl]piperazin-1-yl]-5-oxo-pentyl]-1,2,4-oxadiazol-3-yl]-5-methyl-3-pyridyl]urea] | ≤ 0.2
10 | O=C(CCOCCN1CCN(c2ccc3c(c2)CN(C2CCC(=O)NC2=O)C3=O)CC1)NCCOc1ccc(Cl)cc1NC(=O)Nc1cnc2ccnn2c1C1CCCC1 (centres unmarked) [Compound 43, N-[2-[4-chloro-2-[(7-cyclopentylpyrazolo[1,5-a]pyrimidin-6-yl)carbamoylamino]phenoxy]ethyl]-3-[2-[4-[2-(2,6-dioxo-3-piperidyl)-1-oxo-isoindolin-5-yl]piperazin-1-yl]ethoxy]propanamide] | 1 to 5

Now from value to compound:

Row | EC50 [µM] | SMILES
11 | ≤ 0.2 | CC(C)c1c(NC(=O)Nc2cnc(-c3noc(CCCCC(=O)N4CCN(c5ccc6c(c5)CN(C5CCC(=O)N(C)C5=O)C6=O)CC4)n3)c(Cl)c2)cnc2ccnn12 (centres unmarked) [Compound 136, 1-[5-chloro-6-[5-[5-[4-[2-(1-methyl-2,6-dioxo-3-piperidyl)-1-oxo-isoindolin-5-yl]piperazin-1-yl]-5-oxo-pentyl]-1,2,4-oxadiazol-3-yl]-3-pyridyl]-3-(7-isopropylpyrazolo[1,5-a]pyrimidin-6-yl)urea]
12 | ≤ 0.2 | Cc1cc(NC(=O)Nc2cnc3ccnn3c2C(C)C)cnc1-c1noc(CCCCC(=O)N2CCN(c3ccc4c(c3)CN(C3CCC(=O)N(COC(=O)C(C)(C)C)C3=O)C4=O)CC2)n1 (centres unmarked) [Compound 130, [3-[5-[4-[5-[3-[5-[(7-isopropylpyrazolo[1,5-a]pyrimidin-6-yl)carbamoylamino]-3-methyl-2-pyridyl]-1,2,4-oxadiazol-5-yl]pentanoyl]piperazin-1-yl]-1-oxo-isoindolin-2-yl]-2,6-dioxo-1-piperidyl]methyl 2,2-dimethylpropanoate]
13 | 0.5 to 1 | CCCCOP(=O)(OCCCC)OCN1C(=O)CCC(N2Cc3cc(N4CCN(C(=O)CCCCCc5nc(-c6ncc(NC(=O)Nc7cnc8ccnn8c7C(C)C)cc6C)no5)CC4)ccc3C2=O)C1=O (centres unmarked) [Compound 148, dibutyl [3-[5-[4-[6-[3-[5-[(7-isopropylpyrazolo[1,5-a]pyrimidin-6-yl)carbamoylamino]-3-methyl-2-pyridyl]-1,2,4-oxadiazol-5-yl]hexanoyl]piperazin-1-yl]-1-oxo-isoindolin-2-yl]-2,6-dioxo-1-piperidyl]methyl phosphate]
14 | ≤ 0.2 | CC(C)c1c(NC(=O)Nc2cnc(-c3noc(CCCC(=O)N4CCN(c5ccc6c(c5)CN(C5CCC(=O)N(COC(=O)C(C)(C)C)C5=O)C6=O)CC4)n3)c(Cl)c2)cnc2ccnn12 (centres unmarked) [Compound 137, [3-[5-[4-[4-[3-[3-chloro-5-[(7-isopropylpyrazolo[1,5-a]pyrimidin-6-yl)carbamoylamino]-2-pyridyl]-1,2,4-oxadiazol-5-yl]butanoyl]piperazin-1-yl]-1-oxo-isoindolin-2-yl]-2,6-dioxo-1-piperidyl]methyl 2,2-dimethylpropanoate]
15 | 1 to 5 | Cc1cc(NC(=O)Nc2cnc3ccnn3c2C(C)(C)C)cnc1-c1noc(CCCCCN2CCN(c3ccc4c(c3)CN(C3CCC(=O)NC3=O)C4=O)CC2)n1 (centres unmarked) [Compound 150, 1-(7-tert-butylpyrazolo[1,5-a]pyrimidin-6-yl)-3-[6-[5-[5-[4-[2-(2,6-dioxo-3-piperidyl)-1-oxo-isoindolin-5-yl]piperazin-1-yl]pentyl]-1,2,4-oxadiazol-3-yl]-5-methyl-3-pyridyl]urea]
16 | ≤ 0.2 | Cc1cc2ncc(NC(=O)Nc3cnc(-c4noc(CCCCCN5CCN(c6ccc7c(c6)CN(C6CCC(=O)NC6=O)C7=O)CC5)n4)c(C)c3)c(C3CCCO3)n2n1 (centres unmarked) [Compound 85, 1-[6-[5-[5-[4-[2-(2,6-dioxo-3-piperidyl)-1-oxo-isoindolin-5-yl]piperazin-1-yl]pentyl]-1,2,4-oxadiazol-3-yl]-5-methyl-3-pyridyl]-3-(2-methyl-7-tetrahydrofuran-2-yl-pyrazolo[1,5-a]pyrimidin-6-yl)urea]
17 | 0.2 to 0.5 | Cc1cc(NC(=O)Nc2cnc3ccnn3c2C2CCCCC2)cnc1-c1noc(CCCCN2CCN(c3ccc4c(c3)CN(C3CCC(=O)NC3=O)C4=O)CC2)n1 (centres unmarked) [Compound 141, 1-(7-cyclohexylpyrazolo[1,5-a]pyrimidin-6-yl)-3-[6-[5-[4-[4-[2-(2,6-dioxo-3-piperidyl)-1-oxo-isoindolin-5-yl]piperazin-1-yl]butyl]-1,2,4-oxadiazol-3-yl]-5-methyl-3-pyridyl]urea]

— patent US20250163066A1, “PROTACs of MALT1” (TEGID THERAPEUTICS, INC., priority 2022, published 2025)
